Values of other authors in PMC12281572.
Values joined by “and” are separate entries in the source; they are usually repeats but may differ in a detail not shown here. Equal entries are not always repeated.

Assay: FTIR, 4-fluorophenol as donor (the pK_BHX database, per the paper)
Settings: CCl4; 25 C

| SMILES | pK_BHX (log10 Kf of the 1:1 H-bond complex with 4-fluorophenol, by FTIR) |
| --- | --- |
| C1=COCC1 | 0.53 log units |
| CC(=Nc1cccc(Cl)c1)N(C)c1ccccc1 | 1.24 log units |
| FC1C2CC3CC(C2)CC1C3 (centres unmarked) | -0.02 log units |
| OC(C(F)(F)F)C(F)(F)F | -0.96 log units |
| O=COc1ccccc1 | 0.35 log units |
| c1ccc(-c2ccnc3c2ccc2c(-c4ccccc4)ccnc23)cc1 | 3.26 log units |
| Fc1ccccn1 | 0.95 log units |
| COC(=O)OC | 0.82 log units |
| CN1CC=CCC1 | 2.02 log units |
| CCSSCC | -0.4 log units |
| CCOCCOCC | 1.09 log units |
| c1ccc(C2CC2)cc1 | -0.37 log units |
| c1ccc(-c2ccccn2)nc1 | 1.15 log units |
| c1cnccn1 | 0.92 log units |
| COc1ccccc1 | -0.07 log units |
| CC(C)(C)C#N | 0.99 log units |
| CC(=O)c1ccc(C(C)C)cc1 | 1.21 log units |
| CC(=NC(=S)SCc1ccccc1)N(C)C | 1.49 log units |
| CC(=O)c1ccccc1Cl | 0.9 log units |
| CCc1ccncc1 | 2.07 log units |
| CCCN | 2.2 log units |
| NCc1cc(F)cc(F)c1 | 1.28 log units |
| CNCCC#N | 1.37 log units |

| SMILES | pK_BHX (log10 Kf of the 1:1 H-bond complex with 4-fluorophenol, by FTIR) |
| --- | --- |
| CC(=Nc1cccc(Br)c1)Nc1ccccc1 | 1.24 log units |
| CC(=O)N1CCCCC1 | 2.45 log units |
| CCN(CC)C(=O)c1ccccc1 | 2.26 log units |
| CN(C)C=NC1CC1 | 2.36 log units |
| Cc1c(C)c(C)c(C)c(C)c1C | 0.02 log units |
| Cn1cncc1Br | 2.22 log units |
| CCCN=C(NC)NC#N | 2.09 log units |
| Cc1ccc(C)c(C)c1C | -0.14 log units |
| C=Cc1ccncc1 | 1.95 log units |
| C1CCOC1 | 1.28 log units |
| CC(=O)c1cccc(C(F)(F)F)c1 | 0.72 log units |
| C=CCSC | 0.08 log units |
| O=S(c1ccc(Cl)cc1)c1ccc(Cl)cc1 | 1.68 log units |
| CCCCCF | -0.06 log units |
| O=C(c1ccccc1)N(c1ccccc1)c1ccccc1 | 1.61 log units |
| CC(C)(C)OC(=O)c1ccccc1 | 0.97 log units |
| COc1cc[n+]([O-])cc1 | 3.7 log units |
| Cc1ccnc2c1ccc1c(C)ccnc12 | 3.34 log units |
| CN(C)C=Nc1ccc(C#N)cc1 | 1.32 log units and 1.23 log units |
| CC(=O)c1ccc(N2CCCCC2)cc1 | 1.71 log units |
| CCOC(=O)C(=O)OCC | 0.65 log units |
| Cc1cc(C)c(C)cc1C | -0.15 log units |
| CN(C)C=NC(=S)N(C)C | 1.79 log units |

| SMILES | pK_BHX (log10 Kf of the 1:1 H-bond complex with 4-fluorophenol, by FTIR) |
| --- | --- |
| CCC(CC)N(C(C)C)C(C)C | -0.34 log units |
| CN(C)S(=O)(=O)c1ccccc1 | 0.89 log units |
| C1C2CC3CC1CC(C2)C31OOC12C1CC3CC(C1)CC2C3 (centres unmarked) | 0.63 log units |
| O=C1CCC1 | 1.0 log units |
| Cc1cc(C)c(C)c(C)c1C | -0.07 log units |
| CCN1C(=O)C=CC1=O | 0.68 log units |
| COC(=O)N(C)C | 1.8 log units |
| CN(C(=Nc1ccc(Br)cc1)c1ccccc1)c1ccc(Br)cc1 | 0.99 log units |
| O=C1CCCCCCCCCC1 | 1.2 log units |
| Ic1cccnc1 | 1.37 log units |
| C1CSC1 | 0.13 log units |
| CCN(C)Cc1cccc(C(F)(F)F)c1 | 1.03 log units |
| NCCCCCCN | 2.21 log units |
| COc1ccc(N(C)C(=Nc2ccc(Br)cc2)c2ccccc2)cc1 | 1.23 log units |
| CNc1ccccn1 | 2.11 log units |
| O=C(C1CC1)C1CC1 | 1.36 log units |
| Cc1ccnc(C)c1 | 2.21 log units |
| O=C1CCCCC1 | 1.39 log units |
| COC(=O)C1CCCCC1 | 1.06 log units |
| CN1C(CC(=O)c2ccccc2)CCCC1CC(O)c1ccccc1 (centres unmarked) | 2.11 log units and 1.94 log units |
| CC(=O)n1ccnc1 | 1.86 log units |
| CN1CCN(C)C1=O | 2.46 log units |
| CC(C)OC(C)C | 1.11 log units |

| SMILES | pK_BHX (log10 Kf of the 1:1 H-bond complex with 4-fluorophenol, by FTIR) |
| --- | --- |
| CC(=Nc1ccc(Br)cc1)Nc1ccccc1 | 1.36 log units |
| COC(C(F)(F)F)C(F)(F)F | -0.41 log units |
| c1ccc2nc3ccccc3nc2c1 | 1.22 log units |
| CC(=O)c1ccc(C(C)(C)C)cc1 | 1.25 log units |
| CCC#CCC | -0.1 log units |
| CSC(C)(C)C | 0.25 log units |
| c1ccc(N=C(Nc2ccccc2)c2ccccc2)cc1 | 1.29 log units |
| FC12CC3CC(CC(C3)C1)C2 | 0.31 log units |
| O=C1CCCCCCCCCCCCCC1 | 1.22 log units |
| CN1C(C)(C)CCCC1(C)C | 1.23 log units |
| Cn1cccn1 | 1.84 log units |
| c1ccccc1 | -0.49 log units |
| CC(C)(C)[N+](=O)[O-] | 0.42 log units |
| C1=CCNCC1 | 2.16 log units |
| Clc1cccnc1 | 1.31 log units |
| CCC(=O)NC | 2.24 log units |
| CN(C)C(=O)C(C)(C)C | 2.1 log units |
| Fc1cccc(F)n1 | 0.14 log units |
| CN(C)Cc1cccc(C(F)(F)F)c1 | 1.16 log units |
| CCOC(=O)N(C)C | 1.83 log units |
| c1ccc2ncccc2c1 | 1.89 log units |
| S=C1CCCCCN1 | 1.6 log units |
| O=c1c(-c2ccccc2)c1-c1ccccc1 | 2.3 log units |

| SMILES | pK_BHX (log10 Kf of the 1:1 H-bond complex with 4-fluorophenol, by FTIR) |
| --- | --- |
| CCOC(=O)c1ccc([N+](=O)[O-])cc1 | 0.5 log units and 0.16 log units |
| Cc1ccc(N=C(c2ccccc2)N(C)c2ccc(Br)cc2)cc1 | 1.42 log units |
| CN(C)c1ccc(Br)cc1 | 0.17 log units |
| CC(=Nc1ccccc1)N(C)c1cccc(Cl)c1 | 1.44 log units |
| CCOC(=O)C12CC3CC(CC(C3)C1)C2 | 1.06 log units |
| ClCCCCCl | -0.47 log units |
| FC(F)(F)c1cccc(C2CCCN2)c1 (centres unmarked) | 1.38 log units |
| C1COCCOCCOCCOCCO1 | 1.12 log units |
| CCOC(=O)OCC | 0.88 log units |
| CCC(=O)N(C1CCCCC1)C1CCCCC1 | 2.22 log units |
| COc1ccc(C(=O)c2ccccc2)cc1 | 1.27 log units |
| NCc1cc(Cl)cc(Cl)c1 | 1.27 log units |
| OCCc1ccccc1 | 0.97 log units |
| NCc1cccc(F)c1 | 1.58 log units |
| COCOC | 0.58 log units |
| CN=C(c1ccc([N+](=O)[O-])cc1)N(C)C | 1.99 log units |
| Oc1ccccc1 | -0.07 log units |
| CCO | 1.02 log units |
| Fc1cccc(C2CCCN2)c1 (centres unmarked) | 1.65 log units |
| C(=NCc1ccccc1)c1ccccc1 | 1.18 log units |
| Ic1ccccc1 | -0.64 log units |
